From patent publication US8729023B2 (priority 2002, dated 2014)
“And” between values parts separate entries of the source, which are not always exact repeats. Equal entries are not always repeated.

Legend:
[1] = test system: breast tissue of cancer-free and breast tumor-bearing rats; assay: Effect of BQ788 on ET-1-induced changes in perfusion, CMBC and velocity of blood cells in breast tissue; assay type: in vivo, rat
[2] = Effect of ET-1 infusion on systemic hemodynamics, radioactive microsphere technique; assay type: in vivo, rat; settings: ET-1 50 ng/kg/min infusion for 30 minutes
[3] = test system: breast tissue of cancer-free and breast tumor-bearing rats; assay: Effect of ET-1 on perfusion, CMBC and velocity of blood cells in breast tissue, laser Doppler flowmetry; assay type: in vivo, rat
Description: MNU and saline treatments were performed as i.p. injections three months prior to the studies. Rats were palpated regularly starting four weeks after the treatments. Once tumors reached about 4-8 mm in diameter, experiments were initiated.
Rats were initially divided into two groups, each receiving one of the following treatments: • Group I: ET-1 (50 ng/kg/min) infusion for 30 minutes in rats treated with saline (normal rats) (N=6); and • Group II: ET-1 (50 ng/kg/min) infusion for 30 minutes in treated with MNU (50 mg/kg, i.p.; tumor rats) (N=6).
Systemic hemodynamic and regional circulation parameters were determined at baseline, 30, 60, and 120 minutes after starting ET-1 (50 ng/kg/min) infusion.
Blood perfusion to the mammary gland of the rats was measured using laser Doppler flowmetry. See Song et al., Int J Radiat Oncol Biol Phys, 18:903 (1990); Song et al., Int J Radiat Oncol Biol Phys, 17:1041 (1989). The animals were shaved around the nipples. The skin surrounding the mammary glands was dissected out as a lambeau about 6 cm wide and about 4 cm long. A standard model fiber optic probe was applied to the surface of the lambeau, and secured to the tissue by double stick tape. The lambeau was placed in a metal holder and taped down to prevent movement, then connected to a Periflux PF2b 4000 Laser Doppler Flowmetry (Perimed K B, Stockholm, Sweden). The time constant was set at 1.5 seconds and the bandwidth was set at 4 KHz. Data were analyzed using analysis of variance followed by Duncan's test. A level of p<0.05 was considered significant.

[4] = test system: breast tissue of cancer-free and breast tumor-bearing rats; assay: Effect of ET-1 infusion on blood flow and regional vascular resistance in breast tissue, microspheres; assay type: in vivo, rat
[5] = test system: human melanoma cells (UISO-MEL-2) tumor; settings: nude, mouse, in vivo
[6] = test system: MNU-induced breast tumors; settings: rat, in vivo
[7] = in vivo; settings: female, Sprague Dawley, rat
[8] = rat, in vivo
[9] = test system: JHU-4 (MAT-LyLu) prostate tumor; settings: rat, in vivo
[10] = tumor-bearing rats, at 30 minutes
[11] = tumor-bearing rats, at 60 minutes
[12] = tumor-bearing rats, at 120 minutes
[13] = normal saline-treated rats, ET-1 50 ng/kg/min infusion for 30 minutes
[14] = female, Sprague Dawley, iv, 3 nmol/kg

CCCC[C@@H](NC(=O)[C@@H](Cc1cn(C(=O)OC)c2ccccc12)NC(=O)[C@H](CC(C)(C)C)NC(=O)N1[C@H](C)CCC[C@@H]1C)C(=O)O [BQ788, N-cis-2,6-dimethylpiperidinocarbonyl-L-gamma-methyll-eucyl-D-1-methoxycarbonyltrptophanyl-D-Nle]
CMBC of tumor-bearing versus normal rats ([1]; after BQ788 infusion): no difference
velocity of RBC, tumor-bearing versus normal rats ([1]; after BQ788 infusion): no difference
perfusion in breast tissue of tumor-bearing rats versus normal rats ([1]; following ET-1 administration in BQ788 pretreated rats): No difference
blood perfusion in the breast tissue ([1]; normal rats, BQ788 0.5 μmol/kg infusion for 20 minutes followed by ET-1 50 ng/kg/min for 30 minutes): did not change significantly
effect of pretreatment on the increase in perfusion induced by ET-1 ([1]; tumor-bearing rats): attenuated

CC[C@H](C)[C@H](NC(=O)[C@H](CC(=O)O)NC(=O)[C@H](CC(C)C)NC(=O)[C@H](Cc1c[nH]cn1)NC(=O)[C@@H]1CSSC[C@H](N)C(=O)N[C@@H](CO)C(=O)N[C@H]2CSSC[C@H](NC(=O)[C@H](CCC(=O)O)NC(=O)[C@H](CCCCN)NC(=O)[C@H](CC(=O)O)NC(=O)[C@H](CCSC)NC(=O)[C@H](CC(C)C)NC(=O)[C@H](CO)NC(=O)[C@H](CO)NC2=O)C(=O)N[C@@H](C(C)C)C(=O)N[C@@H](Cc2ccc(O)cc2)C(=O)N[C@@H](Cc2ccccc2)C(=O)N1)C(=O)N[C@H](C(=O)N[C@@H](Cc1c[nH]c2ccccc12)C(=O)O)[C@@H](C)CC [ET-1]
change in HR ([2]; normal rats): No significant change
increase in MAP ([2]; normal rats, at 30 minutes): 14.5%
CO decrease ([2]; normal rats, at 60 minutes): 22.9%
SV decrease ([2]; normal rats, at 60 minutes): 20.9%
CO decrease ([2]; normal rats, at 120 minutes): 42.5%
SV decrease ([2]; normal rats, at 120 minutes): 36%
TPR increase ([2]; normal rats, at 120 minutes): 49.2%
decrease in MAP ([2]; normal rats, at 120 minutes): 17.8%
increase in MAP ([2]; tumor-bearing (MNU treated) rats, at 30 minutes): 19.1%
increase in MAP ([2]; tumor-bearing (MNU treated) rats, at 60 minutes): 15.3%
change in HR ([2]; tumor-bearing rats): No change
CO decrease [2, 10]: 29.4%
SV decrease [2, 10]: 31.1%
TPR increase [2, 10]: 73.9%
CO decrease [2, 11]: 16.7%
SV decrease [2, 11]: 17.9%
TPR increase [2, 11]: 39.7%
CO decrease [2, 12]: 36.1%
SV decrease [2, 12]: 32.1%
TPR increase [2, 12]: 71.4%
velocity of RBC in tumor-bearing rats ([3]; 120 minutes after ET-1 administration): returned to baseline
perfusion in the breast tissue of tumor-bearing rats ([3]; at 60 and 120 minutes following ET-1 administration): returned to baseline
perfusion in the breast tissue of tumor-bearing rats, increase compared to normal rats ([3]; at 30 minutes following ET-1 administration): 176%
CMBC in tumor-bearing rats, increase as compared to normal rats ([3]; at 60 minutes post ET-1 administration): 54%
CMBC in tumor-bearing rats ([3]; at 120 minutes after ET-1 administration): returned to baseline
blood perfusion in the breast tissue ([3]; normal rats, after ET-1 50 ng/kg/min infusion): did not significantly change
velocity of RBC, increase compared to normal rats ([3]; tumor-bearing rats, at 30 minutes post ET-1 administration): 252%
vascular resistance in tumor-bearing rats, difference compared to normal rats ([4]; at 60 minutes following ET-1 administration): 147%
increase in blood flow to the breast tissue of tumor-bearing rats as compared to normal rats ([4]; at 60 minutes following administration of ET-1 50 ng/kg/min): 153%
change in blood flow to the breast tissue [4, 13]: No significant change
change in vascular resistance in breast tissue [4, 13]: No significant change

CC(=O)O[C@H]1C(=O)[C@@]2(C)[C@H]([C@H](OC(=O)c3ccccc3)[C@]3(O)C[C@H](OC(=O)[C@H](O)[C@@H](NC(=O)c4ccccc4)c4ccccc4)C(C)=C1C3(C)C)[C@]1(OC(C)=O)CO[C@@H]1C[C@@H]2O [paclitaxel]
tumor [^3H]paclitaxel concentration [5]: 40.77 nmol/g tissue
percent of tumors progressed [6]: 71.4% and 61.1%
percent of tumors regressing in size [6]: 9.5%
percent of tumors remaining in stasis [6]: 22.2% and 19.5%
reduction in tumor volume as compared to control rats [6]: 60.0%
regression (FIG. 13) [6]: 33.8±19.4%
tumor multiplicity, new tumor occurrence [6]: 78.3% and 41%
tumor regression rate [6]: 37.7±16.2%
tumor volume [6]: 1960.8±611.9 mm^3 and 1682.7±497.3 mm^3
tumors regressed compared to control rats [6]: 45.9±11.5%
MRT [7]: 27.9 ± 19.8 h
half-life [7]: 1.8 ± 0.6 min
Cmax ([7]; iv, 3 nmol/kg): 6730 ± 540 ng/mL
MRT ([7]; iv, 3 nmol/kg): 27.9 ± 19.8 h
MRT inf ([7]; iv, 3 nmol/kg): 17.4 ± 8.13 h
AUC(0-inf) ([7]; iv, 3 nmol/kg, AUC0-∞): 9420 ± 3180 ng·h/mL
clearance ([7]; iv, 3 nmol/kg, Cl): 11.5 mL/min/kg
Vd ([7]; iv, 3 nmol/kg, Vd): 10.1 ± 4.18 L/kg
Vd ([7]; iv, 3 nmol/kg, Vss): 10.3 ± 4.54 L/kg
K10 ([8]; female, Sprague Dawley): 3.14 ± 1.34
K12 ([8]; female, Sprague Dawley): 56.47 ± 27.69
K13 ([8]; female, Sprague Dawley): 5.71 ± 3.37
βt½ ([8]; female, Sprague Dawley): 1.0 ± 0.32 h
γt½ ([8]; female, Sprague Dawley): 25.87 ± 17.81 h
AUC of paclitaxel ([8]; female, Sprague Dawley, iv): 9433.53 ± 1465.00 ng·h/mL
elimination half-life of paclitaxel ([8]; female, Sprague Dawley, iv): 8.4 ± 4.8 min
AUC0-∞ [8, 14]: 9430 ± 1470 ng·h/mL
Cl [8, 14]: 9.33 ± 1.2 mL/min/kg
Vss [8, 14]: 8.14 ± 2.95 L/kg
α t1/2 [8, 14]: 0.03 ± 0.01
β t1/2 [8, 14]: 1.0 ± 0.32
γ t1/2 [8, 14]: 25.87 ± 17.81
clearance calculated as Dose/AUC [8]: 9.33 ± 1.2 mL/min/kg

COc1cccc2c1C(=O)c1c(O)c3c(c(O)c1C2=O)C[C@@](O)(C(=O)CO)C[C@@H]3O[C@H]1C[C@H](N)[C@H](O)[C@H](C)O1 [saline+DOX, doxorubicin]
maximum decrease in body weight [9]: −8.46±3.88
